{"source": "patent US20210113529A1", "about": "“MEDICINE FOR PREVENTING OR TREATING OPHTHALMIC DISEASE ASSOCIATED WITH ENHANCED INTRAOCULAR NEOVASCULARIZATION AND/OR INTRAOCULAR VASCULAR PERMEABILITY” (KYOTO UNIVERSITY, priority 2018, published 2021)", "key": {"S1P3 receptor": {"molecular_target": "S1P3 receptor (Homo sapiens, UniProt Q99500)", "sequence (Q99500 whole entry)": "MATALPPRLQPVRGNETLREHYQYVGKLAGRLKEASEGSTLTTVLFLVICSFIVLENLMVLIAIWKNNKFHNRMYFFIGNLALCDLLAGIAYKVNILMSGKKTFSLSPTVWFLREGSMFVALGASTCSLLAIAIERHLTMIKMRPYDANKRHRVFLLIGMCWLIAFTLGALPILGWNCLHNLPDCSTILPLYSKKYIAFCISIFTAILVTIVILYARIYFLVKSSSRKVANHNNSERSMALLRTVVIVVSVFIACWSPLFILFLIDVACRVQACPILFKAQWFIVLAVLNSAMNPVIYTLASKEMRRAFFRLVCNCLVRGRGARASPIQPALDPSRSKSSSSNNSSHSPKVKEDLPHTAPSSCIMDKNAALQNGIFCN", "assay": "GTP[γ35S] binding assay, S1P3 receptor agonist activity", "assay_type": "biochemical"}, "[1]": {"test_system": "human retinal vascular endothelial cells (HRMECs)", "assay": "Permeability of human retinal vascular endothelial cells (Transwell, FITC-dextran)", "assay_type": "cell-based", "settings": "HRMECs in Transwell; 0.3 nM, 3 nM or 30 nM; 60 minutes pre-culture, 60 minutes after FITC-dextran (40 kDa)", "experimental": "The upper chamber of Transwell (diameter: 6.5 mm, pore size: 0.4 μm: Corning Incorporated) coated with collagen and fibronectin was seeded with human retinal vascular endothelial cells (HRMECs) (Cell Systems) at a cell density of 5×10^4 cells/well, and the cells were cultured in Endothelial Cell Growth Medium MV 2 (PromoCell GmbH) under a 5% CO2 atmosphere at 37° C. for 6 days. Then, to the upper chamber and lower chamber of the Transwell, Compound 1 at a final concentration of 0 nM, 0.3 nM, 3 nM, or 30 nM, which had been prepared using 0.001% dimethyl sulfoxide-containing Endothelial Cell Growth Medium MV 2 as a vehicle, was added, and culture was continued. A well to which only the vehicle was added was used as a control. After 60 minutes of culture, 1 mg/mL of fluorescein isothiocyanate (FITC)-dextran (40 kDa: Sigma-Aldrich) was added to the upper chamber of the Transwell, and 60 minutes later, the fluorescence intensity of the medium in the lower chamber was measured to measure the amount of FITC-dextran permeating the lower chamber."}, "S1P1 receptor": {"molecular_target": "S1P1 receptor (Homo sapiens, UniProt P21453)", "sequence (P21453 whole entry)": "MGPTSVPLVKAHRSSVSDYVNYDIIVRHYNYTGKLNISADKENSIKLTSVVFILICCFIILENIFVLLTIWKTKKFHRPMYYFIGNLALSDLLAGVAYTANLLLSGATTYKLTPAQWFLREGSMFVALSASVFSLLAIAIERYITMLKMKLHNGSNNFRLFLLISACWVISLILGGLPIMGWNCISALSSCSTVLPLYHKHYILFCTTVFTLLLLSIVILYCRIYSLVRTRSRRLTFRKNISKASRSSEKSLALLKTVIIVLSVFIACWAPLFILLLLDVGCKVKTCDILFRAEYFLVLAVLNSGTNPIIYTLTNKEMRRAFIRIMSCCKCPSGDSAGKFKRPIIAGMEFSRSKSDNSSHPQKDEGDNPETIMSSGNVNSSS", "assay": "GTP[γ35S] binding assay, S1P1 receptor agonist activity"}, "[2]": {"test_system": "laser-induced choroidal neovascularization (CNV) model", "assay": "Laser-induced CNV model: fluorescein angiography (FA) grade", "assay_type": "in vivo, mice", "settings": "0.3 mg/kg orally once daily; Day 14 (Comparative Example 1)", "experimental": "A Mydrin-P ophthalmic solution (Santen Pharmaceutical Co., Ltd., Mydrin is a trademark) was dropped into the right eye of 8-week-old mice (Japan SLC, Inc., C56BL/6J strain) to cause mydriasis. A solution obtained by diluting a 7:1 mixed anesthetic solution of ketamine and xylazine 10-fold with physiological saline was administered at 10 mL/kg into the femoral muscle. After that, a 0.1% Hyalein (trademark) ophthalmic solution (Santen Pharmaceutical Co., Ltd.) was dropped into the eye so as to prevent the eyeball from drying. […]\nSampling was performed on the 14th day after the laser irradiation. The mice were anesthetized with 10 mL/kg of a solution obtained by diluting a 7:1 mixed anesthetic solution of ketamine and xylazine 10-fold with physiological saline, and then 0.1 mL of a 10-fold dilution of fluorescein (Alcon Japan Ltd.) was administered into the tail vein of the mice, followed by fluorescence fundus photography using Micron 4 (Phoenix Research Laboratories, Inc. Pleasanton, Calif., USA).\nIn FIG. 1 (a), Day 0 indicates images taken on the day of the laser irradiation, and Day 14 indicates images taken on the 14th day. In addition, for the image of each group on Day 14, an FA grade was determined for each laser irradiation site in accordance with grade criteria shown in Table 1 to evaluate the leakage of a fluorescent dye from a neovascularization site. […]"}, "[3]": {"test_system": "laser-induced choroidal neovascularization (CNV) model", "assay": "Laser-induced CNV model: area of CNV in choroidal flat mount", "assay_type": "in vivo, mice", "settings": "0.3 mg/kg orally once daily; Day 14 (Comparative Example 1; BZ-X710, Image J)", "experimental": "After fluorescence fundus photography had been performed as described above in the section (1), 0.5 mL of fluorescein isothiocyanate dextran (FITC-dextran; 20 mg/mL, Sigma-Aldrich) was administered into the tail vein of the mice. The mice were euthanized by cervical dislocation, and the eyeball was extirpated. The extirpated eyeball was fixed in a 4% paraformaldehyde phosphate buffer for 12 hours. After that, the cornea and lens were excised under a microscope, and the remaining vitreous artery was removed with forceps. Further, the retina was removed, and the choroid was notched 8 points and embedded with Fluoromount (Diagnostic BioSystems) in a flat state to generate a choroidal flat mount specimen. The choroidal flat mount was photographed using a confocal laser scanning microscope (FLUOVIEW FV10i; Olympus, Tokyo, Japan). Next, on the basis of the photographed image, the CNV was encircled using analysis software OLYMPUS FLUOVIEW FV10i (Olympus), and the area thereof was determined as the area of CNV (μm^2). All analyses were performed in a blinded manner. After fluorescence fundus photography had been performed as described above in the section (1), a choroidal flat mount specimen was generated by the same method as in Example 1. The choroidal flat mount was photographed using an all-in-one fluorescence microscope (BZ-X710; Keyence, Osaka, Japan). Next, on the basis of the photographed image, the CNV was encircled using image editing software Image J, and the area thereof was determined as the area of CNV (μm^2). All analyses were performed in a blinded manner."}, "Body weight in CNV model": {"assay": "Body weight in CNV model", "assay_type": "in vivo, mice", "settings": "oral once daily dosing, vs vehicle group", "description": "A case in which FA was unable to be performed owing to cloudiness caused by a flaw in the eye produced before the FA evaluation and a case in which CNV was connected at the time of the evaluation of the area of CNV were excluded from analysis, and the above-mentioned results were each calculated as a mean of 11 or 12 mice in each group. […] A case in which FA was unable to be performed owing to cloudiness caused by a flaw in the eye produced before the FA evaluation and a case in which CNV was connected at the time of the evaluation of the area of CNV were excluded from analysis, and the above-mentioned results were each calculated as a mean of 12 mice in each group."}, "S1P4 receptor": {"molecular_target": "T1, S1P4 receptor (Homo sapiens, UniProt O95977)", "T1 sequence (O95977 1-384)": "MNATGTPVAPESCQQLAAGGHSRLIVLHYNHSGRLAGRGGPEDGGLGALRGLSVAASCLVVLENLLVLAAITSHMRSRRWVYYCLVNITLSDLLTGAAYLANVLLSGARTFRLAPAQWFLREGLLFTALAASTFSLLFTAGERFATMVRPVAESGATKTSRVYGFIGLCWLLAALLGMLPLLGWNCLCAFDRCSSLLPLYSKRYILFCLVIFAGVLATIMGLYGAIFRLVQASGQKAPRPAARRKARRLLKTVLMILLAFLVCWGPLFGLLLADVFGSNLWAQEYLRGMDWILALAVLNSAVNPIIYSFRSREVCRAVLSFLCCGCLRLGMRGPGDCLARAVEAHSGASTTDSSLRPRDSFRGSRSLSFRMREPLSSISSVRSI", "settings": "GTP[γ35S] binding assay; report PLoS One, 2014, 9(10), e110819; read-out: EC50 for S1P4 receptor agonist activity; cited from earlier work"}}, "note": "pEC50: −log10 of the molar value.", "data": [{"smiles": "Cl.O=C(O)C1CCN(CC2=Cc3ccc(OCc4ccc(OCC(F)(F)F)c(C(F)(F)F)c4)cc3OC2)CC1", "note": "[Compound 2, 1-[(7-{[4-(2,2,2-trifluoroethoxy)-3-(trifluoromethyl)phenyl]methoxy}-2H-1-benzopyran-3-yl)methyl]piperidine-4-carboxylic acid monohydrochloride]", "values": [{"measurement": "pEC50", "setting": "S1P3 receptor", "result": 5.75}, {"measurement": "EC50 for S1P3 receptor agonist activity as compared to that for the S1P1 receptor", "setting": "S1P3 receptor", "result": "≥ 100", "unit": "fold"}, {"measurement": "amount of FITC-dextran permeating the lower chamber (fluorescence intensity)", "setting": "[1]", "result": "significantly decreased the amount of FITC-dextran permeating the lower chamber"}, {"measurement": "pEC50", "setting": "S1P1 receptor", "result": 7.87}]}, {"smiles": "CCc1cc(/C(C)=N/OCc2ccc(C3CCCCC3)c(C(F)(F)F)c2)ccc1CN1CC(C(=O)O)C1", "note": "[Compound 3, 1-({4-[(1E)-N-{[4-cyclohexyl-3-(trifluoromethyl)phenyl]methoxy}ethanimidoyl]-2-ethylphenyl}methyl)azetidine-3-carboxylic acid]", "values": [{"measurement": "amount of FITC-dextran permeating the lower chamber (fluorescence intensity)", "setting": "[1]", "result": "significantly decreased the amount of FITC-dextran permeating the lower chamber"}]}, {"smiles": "CC(C)Oc1ccc(-c2nc(-c3cccc4c3CC[C@@H]4NCCO)no2)cc1C#N", "note": "[Compound 4, 5-(3-{(1S)-1-[(2-hydroxyethyl)amino]-2,3-dihydro-1H-inden-4-yl}-1,2,4-oxadiazol-5-yl)-2-[(propan-2-yl)oxy]benzonitrile]", "values": [{"measurement": "amount of FITC-dextran permeating the lower chamber (fluorescence intensity)", "setting": "[1]", "result": "significantly decreased the amount of FITC-dextran permeating the lower chamber"}]}, {"smiles": "CCC/N=C1\\S/C(=C\\c2ccc(OC[C@H](O)CO)c(Cl)c2)C(=O)N1c1ccccc1C", "note": "[Compound 5, (2Z,5Z)-5-({3-chloro-4-[(2R)-2,3-dihydroxypropoxy]phenyl}methylidene)-3-(2-methylphenyl)-2-(propylimino)-1,3-thiazolidin-4-one]", "values": [{"measurement": "amount of FITC-dextran permeating the lower chamber (fluorescence intensity)", "setting": "[1]", "result": "significantly decreased the amount of FITC-dextran permeating the lower chamber"}]}, {"smiles": "O=C(O)C[C@H]1CCc2c1[nH]c1ccc(OCc3ccc(C4CCCC4)c(C(F)(F)F)c3)cc21", "note": "[Compound 6, [(3R)-7-{[4-cyclopentyl-3-(trifluoromethyl)phenyl]methoxy}-1,2,3,4-tetrahydrocyclopenta[b]indol-3-yl]acetic acid]", "values": [{"measurement": "amount of FITC-dextran permeating the lower chamber (fluorescence intensity)", "setting": "[1]", "result": "significantly decreased the amount of FITC-dextran permeating the lower chamber"}]}, {"smiles": "NC(CO)(CCc1ccc(Sc2cccc(OCc3ccccc3)c2)cc1Cl)COP(=O)(O)O", "note": "(stereo not shown) [Compound 7, 2-amino-4-(4-{[3-(benzyloxy)phenyl]sulfanyl}-2-chlorophenyl)-2-(hydroxymethyl)butyl dihydrogen phosphate]", "values": [{"measurement": "amount of FITC-dextran permeating the lower chamber (fluorescence intensity)", "setting": "[1]", "result": "significantly decreased the amount of FITC-dextran permeating the lower chamber"}]}, {"smiles": "CCCCCCCCc1ccc(CCC(N)(CO)CO)cc1.Cl", "note": "[FTY720, 2-amino-2-[2-(4-octylphenyl)ethyl]propane-1,3-diol monohydrochloride, reference compound]", "values": [{"measurement": "FA grade as compared to the vehicle group", "setting": "[2]", "result": "a significant lowering in FA grade was not found"}, {"measurement": "area of CNV", "setting": "[3]", "result": "not found to significantly decrease the area of CNV"}, {"measurement": "change in body weight between the groups before sampling", "setting": "Body weight in CNV model", "result": "a significant change in body weight between the groups before sampling was not found"}]}, {"smiles": "CCCCCCCCc1ccc(CCC(N)(CO)COP(=O)(O)O)cc1", "note": "(stereo not shown) [FTY720-P, 2-amino-2-(hydroxymethyl)-4-(4-octylphenyl)butyl dihydrogenphosphate, reference compound]", "values": [{"measurement": "pEC50", "setting": "S1P4 receptor", "result": 8.66}]}]}
